This test addresses Kappa-type opioid receptor (Homo sapiens, UniProt P41145). Kind of test: Stimulation of U-69,593 binding at human recombinant Opioid receptor kappa 1 transfected into CHO cells.
Kappa-type opioid receptor, sequence (P41145 whole entry): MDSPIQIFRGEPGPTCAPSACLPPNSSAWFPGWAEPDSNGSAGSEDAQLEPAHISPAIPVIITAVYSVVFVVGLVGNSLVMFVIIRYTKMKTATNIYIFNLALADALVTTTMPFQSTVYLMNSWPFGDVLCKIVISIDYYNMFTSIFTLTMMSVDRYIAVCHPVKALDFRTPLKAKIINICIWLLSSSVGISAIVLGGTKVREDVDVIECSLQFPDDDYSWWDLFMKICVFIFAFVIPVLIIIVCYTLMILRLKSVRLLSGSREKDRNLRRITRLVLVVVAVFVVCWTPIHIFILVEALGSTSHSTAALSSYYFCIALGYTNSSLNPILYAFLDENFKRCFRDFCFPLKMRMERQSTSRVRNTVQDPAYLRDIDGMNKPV
For orientation: EC50 means the concentration needed to bring the measured effect to its halfway point. As for `CN1CC[C@]23c4c5ccc(O)c4O[C@H]2c2[nH]c4ccccc4c2C[C@@]3(N)C1C5`, the EC50 came to 87 nM. On to `CCN[C@@]12Cc3c([nH]c4ccccc34)[C@@H]3Oc4c(O)ccc5c4[C@@]31CCN(C)C2C5`, for which the EC50 turned out to be 98 nM. On to `CCCCCCC(=O)N[C@@]12Cc3c([nH]c4ccccc34)[C@@H]3Oc4c(O)ccc5c4[C@@]31CCN(C)C2C5`, for which the EC50 is 57 nM.

Regarding `CN1CC[C@]23c4c5ccc(O)c4O[C@H]2c2[nH]c4ccccc4c2C[C@@]3(NC(=O)CCc2ccccc2)C1C5`, the EC50 came to 9.5 nM.

The values are drawn from BindingDB's records for doi:10.1021/jm021073r (University of Bath, 2003).
